Patent publication US20250099548A1, “PHARMACEUTICAL COMPOSITION FOR PREVENTING OR TREATING DEGENERATIVE BRAIN DISEASES, CONTAINING GLUCAGON-LIKE PEPTIDE-1 AND INTERLEUKIN-1 RECEPTOR ANTAGONIST” (GI INNOVATION, INC., priority 2022, published 2025)

Assays:
[1] = test system: Tg-APP/PS1 mice; test: Passive avoidance test; assay type: in vivo, mouse; details: Example 1; 72 and 120 hours after the shock; 1.2 mg/kg intraperitoneal, 4 times for 2 weeks
Experimental: The test substance was prepared by diluting GI210B1 obtained in Preparation Example 1 in saline, and it was intraperitoneally administered to 6.5-month-old Tg-APP/PS1 mice at a concentration of 1.2 mg/kg a total of 4 times for 2 weeks (FIG. 10).
In the Tg-APP/PS1 mice intraperitoneally administered with GI210B1 at 6.5 months of age in Example 1.1 above, behavioral characteristics of cognitive function were evaluated at 7.5 to 8.0 months of age. In order to evaluate the behavioral characteristics of cognitive function, a novel object recognition test (NOR test), a passive avoidance test, and a water maze test were performed. At that time, the three experiments for behavioral evaluation were performed according to a method known in the art.
The passive avoidance test is a test to confirm fear/anxiety memory by associating spatial contextual cues and shock in mice for long periods of 24 hours, 72 hours, and 120 hours. The passive avoidance test is a cognitive behavior evaluation experiment conducted to confirm memories associated with spatial and contextual cues, specifically fear and anxiety. […]
Specifically, mice have a tendency to prefer a dark place. […] The mice prepared in Example 1.1 were learned in the same manner as above, and the time for each step was measured.

[2] = target: T1, IL-1Ra (interleukin-1 receptor alpha) (Homo sapiens, UniProt P14778); test: Binding ability of GI210B1 measured with Octet RED 384 (AR2G biosensor); details: IL-1Ra 1 μg/ml coated on biosensor; GI210B1 15.6 nM to 1,000 nM
T1 construct: purchased R&D systems
T1 sequence (P14778 18-569): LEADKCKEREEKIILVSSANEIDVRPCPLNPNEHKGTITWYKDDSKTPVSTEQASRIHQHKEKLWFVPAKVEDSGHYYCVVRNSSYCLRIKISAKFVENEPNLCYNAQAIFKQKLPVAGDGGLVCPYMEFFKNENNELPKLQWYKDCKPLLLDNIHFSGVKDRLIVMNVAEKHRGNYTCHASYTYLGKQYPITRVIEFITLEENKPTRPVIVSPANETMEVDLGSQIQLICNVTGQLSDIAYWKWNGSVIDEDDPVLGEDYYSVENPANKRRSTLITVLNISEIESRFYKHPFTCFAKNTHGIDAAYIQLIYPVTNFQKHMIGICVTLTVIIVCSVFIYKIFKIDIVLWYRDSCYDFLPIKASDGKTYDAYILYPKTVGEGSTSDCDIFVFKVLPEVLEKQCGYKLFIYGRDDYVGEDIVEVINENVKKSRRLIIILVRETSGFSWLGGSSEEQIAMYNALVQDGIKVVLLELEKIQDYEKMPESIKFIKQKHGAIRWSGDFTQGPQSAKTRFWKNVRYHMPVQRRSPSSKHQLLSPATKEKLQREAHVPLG
Experimental: The binding ability of GI210B1, which was obtained through the method of Preparation Example 1 above, to IL-1Ra ([…]) was measured. At that time, the binding ability to IL-1Ra was confirmed using Octet RED 384 (ForteBio). The AR2G (amine reactive 2nd generation) biosensor was used by immersion in 1× kinetic buffer for 10 minutes. IL-1Ra (R&D systems) was prepared at a concentration of 1 μg/ml and coated on the biosensor, and the binding ability was confirmed at each concentration by serially diluting GI210B1 from 15.6 nM to 1,000 nM.

[3] = test system: Tg-APP/PS1 mice; test: Aβ plaque deposition in brain tissue, thioflavin S staining; assay type: in vivo, mouse; details: 4 times for 2 weeks
Experimental: Accordingly, in order to confirm the effect of treating Alzheimer's disease by intraperitoneal administration of GI210B1, the Tg-APP/PS1 mice administered with GI210B1 (Tg+GI210B1) and the Tg-APP/PS1 mice (Tg+Veh), a control group, were sacrificed, and then the brain tissue was extracted, and Aβ plaques were stained using thioflavin S, and then the degree of Aβ plaque deposition in the parietal cortex, hippocampus, and piriform cortex regions was analyzed.
Specifically, for immunohistochemical analysis using thioflavin S staining, the brain was collected after perfusion for the mouse with 4% paraformaldehyde, and then the brain was further fixed with 4% paraformaldehyde overnight at 4° C. The brain tissue sections were prepared by cutting the fixed brain tissue to a thickness of […] using a vibratome. The prepared brain tissue sections were stained using thioflavin S by a known method. At that time, the stained image was analyzed using MetaMorph Microscopy Automation & Image Analysis software (Molecular device). The amount of plaque was quantified and expressed as the number of plaques per unit area and the sum of the plaque areas.
The Tg-APP/PS1 mice were prepared in the same manner as in Example 1.1 above. The test substance was prepared by diluting GI210B1, GI210B1C1, or GI210B1CN obtained in Preparation Example 1 to 3 in saline. Thereafter, the prepared test substances were each intraperitoneally administered to the 6.5-month-old Tg-APP/PS1 mice at a concentration of 1.2 mg/kg, 0.7778 mg/kg, and 1.1745 mg/kg a total of 4 times for 2 weeks (FIG. 23).
In the same manner as in Example 1.3 above, the mice were sacrificed, and then the brain tissue was extracted, and the degree of Aβ plaque deposition in the parietal cortex, hippocampus, and piriform cortex regions was analyzed using thioflavin S, which stains Aβ plaques.
The Tg-APP/PS1 mice were prepared in the same manner as in Example 1.1 above. The test substance was prepared by diluting GLP-1 (Peptron), GI210B1C1 obtained in Preparation Example 2 and GI212B2 obtained in Preparation Example 4, anakinra (Amgen, Kineret-inj), and the anti-IL-1 antibody (BioXcell, BE0246) in saline to concentrations of 0.0371 mg/kg, 1.1745 mg/kg, 1.8722 mg/kg, 0.2041 mg/kg, and 1.77 mg/kg, respectively. Thereafter, the prepared test substances were intraperitoneally administered to the 6.5-month-old Tg-APP/PS1 mice a total of 4 times for 2 weeks, as shown in Table 6 below (FIG. 30). […]
In the same manner as in Example 1.3 above, the mice from each group were sacrificed, and then the brain tissue was extracted, and the degree of Aβ plaque deposition in the parietal cortex, hippocampus, and piriform cortex regions was analyzed using thioflavin S, which stains Aβ plaques.

Ka(Association rate, 1/Ms) [2]: 22000 M⁻¹ s⁻¹ | Kd(dissociation rate, 1/s) [2]: 0.0093 s⁻¹
Substance: GI210B1: fusion protein dimer comprising GLP-1 (SEQ ID NO: 2), IgG4 Fc domain and IL-1Ra; SEQ ID NO: 10
moving to the dark chamber after foot shock [1]: had a tendency not to move to the dark chamber | amount of plaque deposited in the brain (number of plaques per unit area and sum of plaque areas) ([3]; Example 1, parietal cortex, hippocampus, piriform cortex, GI210B1 1.2 mg/kg intraperitoneal): tended to be reduced compared to the control group | amount of plaque deposited in the brain (number of plaques per unit area and sum of plaque areas) ([3]; Example 2, GI210B1, GI210B1C1, GI210B1CN at 1.2, 0.7778, 1.1745 mg/kg intraperitoneal): statistically significantly reduced compared to the control group (Tg+Veh) | amount of plaque deposited in the brain (number of plaques per unit area and sum of plaque areas) ([3]; Example 2, GI210B1, GI210B1C1, GI210B1CN at 1.2, 0.7778, 1.1745 mg/kg intraperitoneal, listed as G2101B1): tended to be reduced
